Test results reported in US12649980B2, “Three-dimensional surface for protein and small molecule microarrays” (The Johns Hopkins University, priority 2019, dated 2026).

Columns and labels:
PANC10.05 = experiment: [3H]-2DG uptake assay in PANC10.05 cells; type: cell-based, human; settings: PANC 10.05
Description: Hay, Nat. Rev. […] To determine whether RgA could inhibit glucose uptake in cancer cell lines in addition to A549, the impact of RgA on [3H]-2DG uptake in six other cancer cell lines, including HCC1954, MCF-7, PANC10.05, Jurkat T, HeLa, and RKO was measured (FIG. 3A, Table 3).
(§1) The inhibitory activity of compounds on glucose transport was analyzed by measuring the cell uptake of [3H]-2DG as previously described. Ulanovskaya et al., Chem. Biol. 2011, 18, 222-230. Briefly, cells were washed twice and incubated in low-glucose medium for 10 min. Cells were added drugs and incubated for another 10 min before adding [3H]-2DG. After 10 min incubation with [3H]-2DG, cells were washed twice and lysed with 0.2 N NaOH plus 0.2% SDS. The cell lysate was transferred to a new tube containing 1 mL of optiphase supermix. Glucose uptake was quantified with a scintillation counter.

DLD1 GLUT1 KO = experiment: [3H]-2DG uptake in DLD1 GLUT1 knockout cells; type: cell-based
Description: as §1

HeLa = experiment: Alamar blue cell proliferation assay, HeLa; type: cell-based, human; settings: 72 h, read-out: IC50 Assay B (Alamar blue cell proliferation)
Description: The effects of RgA on cell growth, survival, and cell death was then determined. […] Treatment with 5 μM of RgA caused an increase in G1 phase by approximately 23% in comparison to control and approximately 7% and 17% decreases in cells in S and G2/M phases, respectively. The induction in G1 phase cell cycle arrest by RgA is dose-dependent (FIG. 5A, FIG. 16). […] Jones and Thompson, Genes Dev. 2009, 23, 537-548. […] The IC50 values of RgA against several human cancer cell lines also was determined using the alamar blue cell proliferation assay.
Cells were seeded into a 96-well plate (Costar) in 180 μL culture media. After an overnight recovery, drugs were added and incubated for 72 h. After drug incubation, cells were added with 20 μL of alamar blue reagent and the plates were incubated at 37° C. for 6 h before reading the fluorescence (544 nm Ex/590 nm Em) with a plate reader. GraphPad Prism (v4.03) software was used to determine IC50 values using a four parameter logistic regression.

A549 cells = experiment: [3H]-2DG uptake assay in A549 cells; type: cell-based, human; settings: 10 min incubation with compound, mean ± s.d., n = 3
Description: To determine which of the 17 rapafucin hits inhibited the transporter activity of GLUT1, an orthogonal glucose uptake assay using 2-deoxy-D-[3H] glucose ([3H]-2DG), a nonhydrolyzable, radioactive glucose analog, was employed. Each hit was separately incubated with A549 cells for 10 min before the amount of [3H]-2DG taken up by the cells was measured using scintillation counting. […] The effect of JW11-D2 on uptake of [3H]-2DG in human red blood cells that exclusively express GLUT1 was then determined. Helgerson and Carruthers, J. Biol. Chem. 1987, 262, 5464-5475. […] To further improve the potency of JW11-D2, a structure-activity relationship (SAR) study was performed by synthesizing 21 new analogs of JW11-D2 using different amino acid building blocks.
as §1

GLUT1 = target: T1, GLUT1 (Homo sapiens, UniProt P11166); experiment: biotin-RgA pull-down and biotin probe competition binding assay, GLUT1; settings: competition with 100 nM biotin-RgA probe, HEK293T GLUT1 lysate, Western blot densitometry; read-out: estimated Kd for GLUT1
T1 construct: The full-length human SLC2A1, SLC2A3, and SLC2A4 genes were PCR amplified and inserted into pLenti6M vector 2; expressed in transfected cells
T1 sequence (P11166 1-492): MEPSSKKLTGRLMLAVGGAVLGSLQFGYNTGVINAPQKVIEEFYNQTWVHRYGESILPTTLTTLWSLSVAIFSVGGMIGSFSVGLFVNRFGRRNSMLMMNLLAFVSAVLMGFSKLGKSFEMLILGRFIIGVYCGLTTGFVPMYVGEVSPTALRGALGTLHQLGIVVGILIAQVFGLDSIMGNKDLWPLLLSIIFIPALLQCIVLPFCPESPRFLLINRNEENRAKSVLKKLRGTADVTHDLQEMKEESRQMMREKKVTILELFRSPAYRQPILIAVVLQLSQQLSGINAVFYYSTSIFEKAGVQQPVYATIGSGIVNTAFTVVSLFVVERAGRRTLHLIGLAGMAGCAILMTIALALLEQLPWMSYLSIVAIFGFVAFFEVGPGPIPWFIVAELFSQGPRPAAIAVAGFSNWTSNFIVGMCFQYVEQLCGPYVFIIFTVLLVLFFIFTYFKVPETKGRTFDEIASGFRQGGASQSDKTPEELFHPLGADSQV
Description: Next, the binding affinity of RgA for GLUT1 was determined using a RgA biotin pull-down assay. A biotin-RgA conjugate was synthesized by tethering the biotin moiety through carbon:carbon double bond in the FKBP-binding domain of RgA (FIG. 13). […] Using the biotin-RgA conjugate, a pulldown experiment with cell lysate containing detergent-solubilized GLUT1 protein prepared from HEK293T cells overexpressing GLUT1 was performed, followed by Western blot analysis with a GLUT1-specific antibody.
The estimation of Kd value for RgA was determined with the biotin probe competition binding assay. […] After western blot, band intensities were quantified by densitometry analysis using Image J software. The assay was repeated three times. GraphPad Prism (v4.03) software was used to determine apparent Kd value for RgA using a nonlinear regression.

## CCC(C)C1C(=O)NCC(=O)N(C)CCC=CC(=O)OCC(C)(C)C(=O)C(=O)N2CCCCC2C(=O)OC(CCc2ccc(OC)c(OC)c2)c2cccc(c2)NC(=O)CCC(=O)N(C)C(CC(C)C)C(=O)NC(Cc2ccccc2)C(=O)N1C (stereo not drawn) [JW11-D2, Rapaglutin A]
PANC10.05
  IC50: 0.0095 µM
DLD1 GLUT1 KO; DLD1 GLUT1 knockout
  EC50: 0.0271 ± 0.0036 µM
DLD1 GLUT1 KO; DLD-1 GLUT1 knock out versus wild type
  inhibitory activity in GLUT1 knock out cells: retained its inhibitory activity
HeLa
  IC50: 0.281 µM
A549 cells
  IC50: 0.0116 µM
GLUT1
  Kd: 0.078 µM
